Here are results for 29 compounds from patent publication US9540323B2 (BRISTOL-MYERS SQUIBB COMPANY, priority 2012, dated 2017).

Test [1] concerns human platelet rich plasma (PRP). The test can be described thus: ADP induced platelet aggregation assay. As to conditions: Homo sapiens, Platelet, 5 min, read-out: PA IC50 (μM) @ 10 μM ADP, human PRP, 10 μM ADP, AUC at 5 minute.
The target in test [2] is cloned human P2Y1 receptors (Homo sapiens (Human), UniProt P47900). The test is described as follows: Binding Assay B - Scintillation Proximity Assay (SPA) for P2Y1 binding, [33P] 2MeS-ADP. As to conditions: SPA, 0.3 nM [33P] 2MeS-ADP, Cheng-Prusoff; read-out: P2Y1 Ki (nM) using binding assay B. The method, then:
Binding Assay B—Scintillation Proximity Assay (SPA) for P2Y1 Binding
A SPA membrane binding assay was used to identify inhibitors of [^33P] […] Reactions were allowed to proceed to completion at room temperature for 1 hour followed by centrifugation of the plate for 5 min. About 40 μL of the aqueous solution was aspirated. Plates were sealed and the [^33P]

cloned human P2Y1 receptors, sequence (P47900 whole entry): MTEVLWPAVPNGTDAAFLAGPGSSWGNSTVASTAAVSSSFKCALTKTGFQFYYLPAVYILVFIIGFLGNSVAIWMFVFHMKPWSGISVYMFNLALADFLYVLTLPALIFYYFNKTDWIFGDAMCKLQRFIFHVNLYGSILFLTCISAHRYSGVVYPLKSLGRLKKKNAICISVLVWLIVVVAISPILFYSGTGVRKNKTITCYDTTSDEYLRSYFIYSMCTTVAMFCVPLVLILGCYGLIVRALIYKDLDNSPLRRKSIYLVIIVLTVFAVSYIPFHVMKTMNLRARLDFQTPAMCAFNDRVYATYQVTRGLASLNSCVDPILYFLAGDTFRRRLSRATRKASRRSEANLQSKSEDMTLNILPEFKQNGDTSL

With `CC(C)(C)c1ccccc1Oc1ncccc1NC(=O)Nc1ccccc1N1CC(C)(C)c2ccccc21` [Comparator 3, reference compound], the IC50 in test [1] is greater than 20 µM. Moreover, in test [2], the Ki came to 759 nM.

Regarding `CC1(C)CN(c2ccccc2NC(=O)Nc2nc3ccc(F)cc3s2)c2c(O)ccc(Br)c21` [Example 1, 1-(2-(4-Bromo-7-hydroxy-3,3-dimethylindolin-1-yl)phenyl)-3-(6-fluorobenzo[d]thiazol-2-yl)urea], the IC50 in test [1] was 0.47 µM. In addition, the Ki in test [2] stood at 10.8 nM.

With `CC(C)(C)CN1CCC(c2ccc(NC(=O)Nc3ccccc3N3CC(C)(C)c4c(C(F)(F)F)ccc(O)c43)cc2)CC1` [Example 2, 1-(2-(7-Hydroxy-3,3-dimethyl-4-(trifluoromethyl)indolin-1-yl)phenyl)-3-(4-(1-neopentylpiperidin-4-yl)phenyl)urea], the IC50 in test [1] is 0.13 µM. Besides, in test [2], the Ki was determined as 3.4 nM.

As for `CC1(C)CN(c2ccccc2NC(=O)NC2CCN(CC(F)(F)F)CC2)c2c(O)ccc(C(F)(F)F)c21` [Example 3, 1-(2-(7-Hydroxy-3,3-dimethyl-4-(trifluoromethyl)indolin-1-yl)phenyl)-3-(1-(2,2,2-trifluoroethyl)piperidin-4-yl)urea], the IC50 in test [1] turned out to be 3.1 µM. Also, in test [2], the Ki came out at 4.9 nM.

Take `CCC1(CC)CN(c2ccccc2NC(=O)Nc2ccc(C3CCN(CC(C)(C)C)CC3)cc2)c2c(O)ccc(F)c21` [Example 4, 1-(2-(3,3-Diethyl-4-fluoro-7-hydroxyindolin-1-yl)phenyl)-3-(4-(1-neopentylpiperidin-4-yl)phenyl)urea]: the half-inhibitory concentration (IC50) in test [1] came out at 0.36 µM. Moreover, in test [2], the Ki stood at 5.6 nM.

For the compound `CCC1(CC)CN(c2ccccc2NC(=O)Nc2ccc(OC(F)(F)F)cc2)c2c(O)cc(F)cc21` [Example 5, 1-(2-(3,3-Diethyl-5-fluoro-7-hydroxyindolin-1-yl)phenyl)-3-(4-(trifluoromethoxy)phenyl)urea], the concentration for half-maximal inhibition (IC50) in test [1] amounted to 1.05 µM. The inhibition constant (Ki) in test [2] was determined as 16 nM.

Consider `CC1(C)CN(c2ccccc2NC(=O)Nc2csc(Cl)n2)c2c(O)ccc(Br)c21` [Example 6, 1-(2-(4-Bromo-7-hydroxy-3,3-dimethylindolin-1-yl)phenyl)-3-(2-chlorothiazol-4-yl)urea], for which, in test [1], the IC50 was found to be 0.31 µM. Also, the inhibition constant Ki in test [2] was determined as 24.4 nM.

Turning to `CCC1(CC)CN(c2ccccc2NC(=O)Nc2ccc(C3CCCN3CC(C)(C)C)cc2)c2c(O)cccc21` (stereo not shown) [Example 7, 1-(2-(3,3-Diethyl-7-hydroxyindolin-1-yl)phenyl)-3-(4-(1-neopentylpyrrolidin-2-yl)phenyl)urea], the 50% inhibitory concentration (IC50) in test [1] was found to be 0.55 µM. Besides, the Ki in test [2] was determined as 8.6 nM.

As to `CCC1(CC)CN(c2ccccc2NC(=O)Nc2ccc(C3CCCN3CC(C)C)cc2)c2c(O)cccc21` (stereo not shown) [Example 8], the IC50 in test [1] stood at 0.31 µM. The inhibition constant Ki in test [2] was 18.6 nM.

For `CCC1(CC)CN(c2ccccc2NC(=O)Nc2nc3ccc(Cl)cc3s2)c2c(O)cccc21` [Example 9, 1-(6-Chlorobenzo[d]thiazol-2-yl)-3-(2-(3,3-diethyl-7-hydroxyindolin-1-yl)phenyl)urea], the IC50 in test [1] stood at 0.39 µM. Also, the inhibition constant (Ki) in test [2] came out at 14.2 nM.

With `CCC1(CC)CN(c2ccccc2NC(=O)Nc2nc3ccc(C)cc3s2)c2c(O)cccc21` [Example 10, 1-(2-(3,3-Diethyl-7-hydroxyindolin-1-yl)phenyl)-3-(6-methylbenzo[d]thiazol-2-yl)urea], the IC50 in test [1] turned out to be 0.54 µM. The inhibition constant Ki in test [2] amounted to 7.6 nM.

Turning to `CC(C)CN1CCCC1c1ccc(NC(=O)Nc2ccccc2N2CC(C)(C)c3cccc(O)c32)cc1` (stereo not shown) [Example 11, 1-(2-(7-Hydroxy-3,3-dimethylindolin-1-yl)phenyl)-3-(4-(1-isobutylpyrrolidin-2-yl)phenyl)urea], in test [1], the IC50 was 1.08 µM. Also, in test [2], the Ki turned out to be 36.8 nM.

As to `CC1(C)CN(c2ccccc2NC(=O)Nc2ccc(OC(F)(F)F)cc2)c2c(O)ccc(C(F)(F)F)c21` [Example 12, 1-(2-(7-Hydroxy-3,3-dimethyl-4-(trifluoromethyl)indolin-1-yl)phenyl)-3-(4-(trifluoromethoxy)phenyl)urea], in test [1], the IC50 is 0.2 µM. Moreover, the inhibition constant (Ki) in test [2] was 5 nM.

Consider `CC(C)(C)c1ccc(NC(=O)Nc2ccccc2N2CC(C)(C)c3c(C(F)(F)F)ccc(O)c32)cc1` [Example 13, 1-(4-tert-Butylphenyl)-3-(2-(7-hydroxy-3,3-dimethyl-4-(trifluoromethyl)indolin-1-yl)phenyl)urea], for which the IC50 in test [1] stood at 0.13 µM. In addition, the Ki in test [2] was found to be 8.2 nM.

`CC1(C)CN(c2ccccc2NC(=O)Nc2ccc(F)cc2F)c2c(O)ccc(C(F)(F)F)c21` [Example 14, 1-(2,4-Difluorophenyl)-3-(2-(7-hydroxy-3,3-dimethyl-4-(trifluoromethyl)indolin-1-yl)phenyl)urea]: in test [1], the IC50 was found to be 0.48 µM. In addition, the Ki in test [2] worked out at 5.2 nM.

On to `Cc1nc(NC(=O)Nc2ccccc2N2CC(C)(C)c3c(C(F)(F)F)ccc(O)c32)cs1` [Example 15, 1-(2-(7-Hydroxy-3,3-dimethyl-4-(trifluoromethyl)indolin-1-yl)phenyl)-3-(2-methylthiazol-4-yl)urea], for which the concentration for half-maximal inhibition (IC50) in test [1] is 0.95 µM. In addition, the Ki in test [2] amounted to 7.3 nM.

With `CC1(C)CN(c2ccccc2NC(=O)Nc2csc(Cl)n2)c2c(O)ccc(C(F)(F)F)c21` [Example 16, 1-(2-Chlorothiazol-4-yl)-3-(2-(7-hydroxy-3,3-dimethyl-4-(trifluoromethyl)indolin-1-yl)phenyl)urea], the IC50 in test [1] turned out to be 0.12 µM. For the same compound, the Ki in test [2] is 6.2 nM.

Turning to `CC1(C)CN(c2ccccc2NC(=O)Nc2ccc(C(F)(F)F)cc2)c2c(O)ccc(C(F)(F)F)c21` [Example 17, 1-(2-(7-Hydroxy-3,3-dimethyl-4-(trifluoromethyl)indolin-1-yl)phenyl)-3-(4-(trifluoro-methyl)phenyl)urea], in test [1], the half-inhibitory concentration (IC50) was 0.27 µM. Moreover, the Ki in test [2] worked out at 16.4 nM.

Consider `CC1(C)CN(c2ccccc2NC(=O)Nc2nc3ccc(F)cc3s2)c2c(O)ccc(C(F)(F)F)c21` [Example 18, 1-(6-Fluorobenzo[d]thiazol-2-yl)-3-(2-(7-hydroxy-3,3-dimethyl-4-(trifluoromethyl)indolin-1-yl)phenyl)urea], for which, in test [1], the half-inhibitory concentration (IC50) was 0.17 µM. Further, the inhibitory constant (Ki) in test [2] amounted to 12.4 nM.

With `CC1(C)CN(c2ccccc2NC(=O)Nc2nc3ccc(Cl)cc3s2)c2c(O)ccc(C(F)(F)F)c21` [Example 19, 1-(6-Chlorobenzo[d]thiazol-2-yl)-3-(2-(7-hydroxy-3,3-dimethyl-4-(trifluoromethyl)indolin-1-yl)phenyl)urea], in test [1], the 50% inhibitory concentration (IC50) turned out to be 0.12 µM. Also, the inhibition constant (Ki) in test [2] was determined as 23.6 nM.

Consider `CCN1CCc2nc(NC(=O)Nc3ccccc3N3CC(C)(C)c4c(C(F)(F)F)ccc(O)c43)sc2C1` [Example 20, 1-(5-Ethyl-4,5,6,7-tetrahydrothiazolo[5,4-c]pyridin-2-yl)-3-(2-(7-hydroxy-3,3-dimethyl-4-(trifluoromethyl)indolin-1-yl)phenyl)urea], for which the IC50 in test [1] was determined as 0.95 µM. In addition, in test [2], the Ki came out at 18.6 nM.

In the case of `CC(C)CN1CCc2nc(NC(=O)Nc3ccccc3N3CC(C)(C)c4c(C(F)(F)F)ccc(O)c43)sc2C1` [Example 21, 1-(2-(7-Hydroxy-3,3-dimethyl-4-(trifluoromethyl)indolin-1-yl)phenyl)-3-(5-isobutyl-4,5,6,7-tetrahydrothiazolo[5,4-c]pyridin-2-yl)urea], in test [1], the IC50 was determined as 0.07 µM. For the same compound, in test [2], the inhibitory constant (Ki) was found to be 7.9 nM.

Turning to `CC(C)(C)CN1CCc2nc(NC(=O)Nc3ccccc3N3CC(C)(C)c4c(C(F)(F)F)ccc(O)c43)sc2C1` [Example 22, 1-(2-(7-Hydroxy-3,3-dimethyl-4-(trifluoromethyl)indolin-1-yl)phenyl)-3-(5-neopentyl-4,5,6,7-tetrahydrothiazolo[5,4-c]pyridin-2-yl)urea], the IC50 in test [1] stood at 0.21 µM. For the same compound, the Ki in test [2] turned out to be 8 nM.

With `CC1(C)CN(c2ccccc2NC(=O)Nc2nc3c(s2)CN(CC2CC2)CC3)c2c(O)ccc(C(F)(F)F)c21` [Example 23, 1-(5-(Cyclopropylmethyl)-4,5,6,7-tetrahydrothiazolo[5,4-c]pyridin-2-yl)-3-(2-(7-hydroxy-3,3-dimethyl-4-(trifluoromethyl)indolin-1-yl)phenyl)urea], in test [1], the IC50 was found to be 1.01 µM. Besides, the Ki in test [2] worked out at 10.4 nM.

Consider `CCC1(CC)CN(c2ccccc2NC(=O)Nc2ccc(OC(F)(F)F)cc2)c2c(O)ccc(C(F)(F)F)c21` [Example 24, 1-(2-(3,3-Diethyl-7-hydroxy-4-(trifluoromethyl)indolin-1-yl)phenyl)-3-(4-(trifluoromethoxy)phenyl)urea], for which the 50% inhibitory concentration (IC50) in test [1] was 0.22 µM. The inhibition constant Ki in test [2] stood at 7.6 nM.

As to `CCC1(CC)CN(c2ccccc2NC(=O)Nc2ccc(C3CCN(CC(C)(C)C)CC3)cc2)c2c(O)ccc(C(F)(F)F)c21` [Example 25, 1-(2-(3,3-Diethyl-7-hydroxy-4-(trifluoromethyl)indolin-1-yl)phenyl)-3-(4-(1-neopentylpiperidin-4-yl)phenyl)urea], the IC50 in test [1] came out at 0.26 µM. Moreover, the Ki in test [2] amounted to 6.3 nM.

Turning to `CCC1(CC)CN(c2ccccc2NC(=O)Nc2ccc(C(C)(C)C)cc2)c2c(O)ccc(F)c21` [Example 26, 1-(4-tert-Butylphenyl)-3-(2-(3,3-diethyl-4-fluoro-7-hydroxyindolin-1-yl)phenyl)urea], the half-inhibitory concentration (IC50) in test [1] was 0.98 µM. Also, the inhibitory constant (Ki) in test [2] was found to be 5.1 nM.

`CCc1ccc(NC(=O)Nc2ccccc2N2CC(CC)(CC)c3c(F)ccc(O)c32)cc1` [Example 27, 1-(2-(3,3-Diethyl-4-fluoro-7-hydroxyindolin-1-yl)phenyl)-3-(4-ethylphenyl)urea]: in test [1], the 50% inhibitory concentration (IC50) is 1.02 µM. The Ki in test [2] is 3.1 nM.

As to `CCC1(CC)CN(c2ccccc2NC(=O)Nc2ccc(C3CCN(CC(C)C)CC3)cc2)c2c(O)ccc(F)c21` [Example 28, 1-(2-(3,3-Diethyl-4-fluoro-7-hydroxyindolin-1-yl)phenyl)-3-(4-(1-isobutylpiperidin-4-yl)phenyl)urea], the half-maximal inhibitory concentration (IC50) in test [1] amounted to 0.54 µM. The Ki in test [2] turned out to be 8.1 nM.
